{
  "source": "patent US6447748B1",
  "about": "“Benzamide compounds for cancer imaging and therapy” (Research Corporation Technologies, Inc., priority 1993, dated 2002)",
  "key": {"Sigma-2 [1]": {"target": "T1, Sigma-2 (Rattus norvegicus, UniProt Q5U3Y7)", "T1 sequence (Q5U3Y7 1-176)": "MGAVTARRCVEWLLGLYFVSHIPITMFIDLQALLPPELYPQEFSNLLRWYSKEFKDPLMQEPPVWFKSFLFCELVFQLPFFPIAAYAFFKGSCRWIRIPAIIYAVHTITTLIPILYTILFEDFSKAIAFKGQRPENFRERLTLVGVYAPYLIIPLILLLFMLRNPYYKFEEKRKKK", "assay": "Sigma-2 binding assay, rat liver membranes, [3H]DTG + dextrallorphan (Example 9)"}, "DOPAMINE D-2": {"target": "T2, DOPAMINE D-2 (Rattus norvegicus, UniProt P61169)", "T2 construct": "from tissue", "assay": "Dopamine D-2 binding, rat brain, [3H]-(−)-sulpiride", "settings": "Table 2 of Example 9"}, "PCP": {"target": "PCP", "assay": "PCP binding, rat brain, [3H]TCP", "settings": "Table 2 of Example 9"}, "[2]": {"target": "MUSC (muscarinic receptors)", "format": "binding", "settings": "read-out: Ki MUSC RAT BRAIN [3H]QNB"}, "[3]": {"target": "T3, sigma sites labeled by 4-[125I]BP in MCF-7 breast cancer cells (Homo sapiens, UniProt Q5BJF2)", "T3 construct": "Intact adherent cells were washed (2×1 mL) with 10 mM phosphate buffer; endogenous in cells; host or cells: intact adherent MCF-7 breast cancer cells", "assay": "Homologous and heterologous competition for 4-[125I]BP binding in intact MCF-7 cells", "settings": "37° C. for 1 hr., unit printed in b378 only, not in the table"}, "[4]": {"target": "sigma sites labeled by 4-[125I]PEMP in guinea pig brain membranes", "format": "binding", "settings": "read-out: Ki against 4-[125I]PEMP", "procedure": "(§1) Intact adherent cells were washed (2×1 mL) with 10 mM phosphate buffer (pH=7.2). […] Each data point represent an average of three values. The cells were incubated at 37° C. for 1 hr. and subsequently washed with phosphate buffer (10 mM; pH 7.2) (3×1 mL). The cells were then dissolved in 0.2 N NaOH (1.0 mL) and the activity counted on a Beckman (DP 5500) Gamma Counter. A similar procedure was repeated with 2-[^125I]BP with MCF-7, MDA-MB 231 and T47D breast cancer cells.\n(§2) The affinity of compounds for sites labeled by 4-[^125I]PEMP was determined by homologous and heterologous in vitro competitive binding assays in intact MCF-7 breast cancer cells and guinea pig brain membranes labeled by 4-[^125I]PEMP. The assays were prepared according to the procedure described in Example 14."}, "[5]": {"test_system": "sites labeled by 4-[125I]PEMP in MCF-7 breast tumor cells", "procedure": "as §1, §2"}, "Sigma-1 [6]": {"target": "T4, Sigma-1 (Cavia porcellus, UniProt Q60492)", "T4 sequence (Q60492 whole entry)": "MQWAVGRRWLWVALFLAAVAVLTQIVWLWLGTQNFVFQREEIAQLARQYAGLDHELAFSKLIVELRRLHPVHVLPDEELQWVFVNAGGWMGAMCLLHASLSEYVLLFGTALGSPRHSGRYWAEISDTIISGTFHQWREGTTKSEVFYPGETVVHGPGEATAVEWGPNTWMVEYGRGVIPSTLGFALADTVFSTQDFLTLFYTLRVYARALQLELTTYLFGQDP", "assay": "Sigma-1 binding assay, guinea pig brain membranes, [3H]-(+)-pentazocine (Example 9)", "description": "A plasma membrane-mitochondrial (P2) membrane fraction was prepared from frozen guinea pig brains (Pel-Freeze, Rogers, Ak.), minus cerebellum. The brain tissue was thawed slowly before homogenization. A crude P2 membrane fraction was also prepared from the livers of Sprague-Dawley rats (150-220 g, Taconic Farms). The animals were decapitated and their livers were minced and homogenized. The tissue homogenization was carried out at 4° C. in 10 mM tris-HCl/0.32 M sucrose, pH=7.4 using 10 motor-driven strokes in a Potter-Elvehjem Teflon glass homogenizer. The crude homogenate was centrifuged for 10 min at 1000 g and the crude nuclear (P1) pellet was discarded. Supernatants were centrifuged at 31000×g for 15 min to yield a plasma membrane-mitochondrial pellet (P2). This pellet was resuspended in 3 ml/g in 10 mM tris-HCl, pH 7.4 and used for binding studies. Protein concentrations were determined by the method of Lowry.\nFilters were washed twice with ice-cold 10 mM tris-HCL. Prior to use, filters were soaked in 0.5% polyethyleneimine for about 30 min at 25° C.\n(§5) When the assay was terminated, the membranes were filtered and the filtrate washed twice as above. The radioactivity was counted in Ecoscint (National Diagnostics, Manville, N.J.) after an overnight extraction of counts.\n(§6) Ki values were calculated from the IC50 values using Cheng-Prusoff equation."}, "[7]": {"test_system": "Sigma-1 sites, MCF-7 breast adenocarcinoma"}, "[8]": {"test_system": "MCF-7 breast cancer cells", "design": "species or system human", "settings": "read-out: Kd, saturable binding", "from_the_text": "The cells were adherent and split weekly in a 1:20 ratio using trypsin/EDTA (GIBCO)."}, "[9]": {"target": "Sigma-1 sites, T47D breast ductal carcinoma"}, "[10]": {"test_system": "human melanoma xenograft tumors (A2058)", "assay": "Scintigraphic imaging of nude mice bearing human melanoma xenografts", "format": "in vivo, Balb/c nu/nu mice", "procedure": "(§3) A2058 cells, derived from a brain metastasis of human malignant melanoma (Todaro et al. 1980 Proc. Natl. Acad. Sci. USA 77: 5258) were obtained from the National Institutes of Health. A human lung adenocarcinoma cell line, NCI-838, was obtained from the National Cancer Institute. These cells were grown in DMEM2 medium (Dulbecco's modification of Eagle's medium, […]) supplemented with 10% fetal bovine serum and 0.03% L-glutamine.\n(§4) Balb/c nu/nu mice (17-22 g) bearing human melanoma or non-small cell lung carcinoma xenograft tumors were injected intravenously with 0.2 ml of saline solution containing [^131I]PAB or [^131I]DAB (150-200 μCi). The animals were anesthetized with ketamine containing rompun before the imaging studies. The images were obtained using a scintigraphic camera with a pin-hole collimator at 6 and 24 hr. post injection."}, "[11]": {"test_system": "human adenocarcinoma xenograft (NCI-838)", "assay": "Scintigraphic imaging of nude mouse bearing human lung adenocarcinoma xenograft", "format": "in vivo, Balb/c nu/nu mice", "settings": "24 and 30 hrs. post-injection", "procedure": "as §3\nas §4, with “The images were obtained using a scintigraphic camera with a pin-hole collimator at 6 and 24 hr. post injection.” left out"}, "[12]": {"test_system": "A2058 human malignant melanoma cells", "assay": "In vitro competitive binding of nonradioactive IPAB against [125I]PAB in A2058 cells", "settings": "37° C. for 5 hr., read-out: Ki, nonradioactive IPAB inhibiting binding of radioactive IPAB", "description": "These cells were grown in DMEM2 medium (Dulbecco's modification of Eagle's medium, EMEM) supplemented with 10% fetal bovine serum and 0.03% L-glutamine.\nA2058 cells, grown as described above, were harvested with calcium and magnesium free phosphate buffer (0.1 M) containing 0.02% EDTA. Cells were washed twice with ice-cold RPMI 1640 medium (Gibco) without glutamine and resuspended in the same medium. Carrier-free [^125I]PAB (0.1 ml) was added to eight aliquots of 0.1 ml test A2058 cells (1.5×10^6 cells in suspension). To observe competitive binding by non-radioactive IPAB, varying concentrations of non-radioactive IPAB were added in a volume of 0.1 ml. Cells were incubated at 37° C. for 5 hr. after addition of radioactive and nonradioactive IPAB.\nAfter incubation, cells were collected by centrifugation for 5 min and washed twice with RPMI 1640 medium. The radioactivity bound to cells was counted using a Packard Autogamma 5650 scintillation counter.\nData were analyzed with an INPLOT® iterative, non-linear least square curve fitting program."}, "Sigma-2 [13]": {"target": "T1, Sigma-2", "assay": "Sigma-2 binding assay, rat liver membranes, [3H]DTG + dextrallorphan (Example 8)", "settings": "read-out: Ki Sigma-2 Rat Liver; 3 nM [3H]DTG, 1 micromolar dextrallorphan", "description": "(§7) A crude P2 membrane fraction was also prepared from the livers of rat Sprague-Dawley rats (150-220 g, Taconic Farms) liver. The animals were decapitated and their livers were minced and homogenized. The tissue homogenization was carried out at 4° C. in ml/g tissue weight of 10 mM Tris-HCl/0.32 M sucrose, pH=7.4 using 10 motor-driven strokes in a Potter-Elvehjem Teflon glass homogenizer. The crude homogenate was centrifuged for 10 min at 1000 g and the crude nuclear (P1) pellet was discarded. Supernatants were centrifuged at 31000 g for 15 min to yield a plasma membrane-mitochondrial pellet (P2). This pellet was resuspended in 3 ml/g in 10 mM tris-HCl, pH 7.4 and used for binding studies. Protein concentrations were determined by the method of Lowry.\n(§8) Filters were washed twice with ice-cold buffer. Prior to use, filters were soaked in 0.5% polyethyleneimine for about 30 min at 25° C.\nas §5, §6"}, "Sigma-1 [14]": {"target": "T4, Sigma-1", "assay": "Sigma-1 binding assay, guinea pig brain membranes, [3H]-(+)-pentazocine (Example 8)", "settings": "read-out: Ki Sigma-1 Guinea Pig Brain; 3 nM [3H]-(+)-pentazocine, 60 min at 37° C.", "description": "as §7, §8, §5, §6"}, "[15]": {"target": "T5, Sigma-2, rat C6 glioma cells (Rattus norvegicus, UniProt Q5U3Y7)", "T5 sequence (Q5U3Y7 1-176)": "T1 sequence (Q5U3Y7 1-176)", "assay": "Sigma-2 binding assay, C6 glioma cell homogenates, [3H]DTG + dextrallorphan (Example 8)", "settings": "read-out: Ki Sigma-2 C6 Glioma Cells; 3 nM [3H]DTG, 1 micromolar dextrallorphan", "description": "as §8, §5, §6"}, "[16]": {"settings": "read-out: Ki SIGMA-2 RAT LIVER [3H]DTG + DEX, Table 2 of Example 9"}, "[17]": {"settings": "read-out: Ki SIGMA-1 GUINEA PIG BRAIN [3H]-(+)-PENT, Table 2 of Example 9, 120 min at 25° C."}},
  "note": "Where two headings read alike, the source gives them in different places.",
  "data": [
    {"compound": "O=C(NC1CCN(Cc2ccccc2)CC1)c1ccc(I)cc1", "note": "[4-IBP, (N-Benzylpiperidin-4-yl)-4-iodobenzamide]", "values": [
      {"measurement": "Ki", "setting": "Sigma-2 [1]; [16]", "value": "25.2 ± 1.28", "unit": "nM"},
      {"measurement": "Ki", "setting": "DOPAMINE D-2", "value": "382 ± 39", "unit": "nM"},
      {"measurement": "Ki", "setting": "PCP", "value": "> 100000", "unit": "nM"},
      {"measurement": "Ki", "setting": "[2]", "value": "> 100000", "unit": "nM"},
      {"measurement": "Ki", "setting": "[3]", "value": "4.8 ± 2", "unit": "nM"}
    ]},
    {"compound": "CN(CCc1ccc(Cl)c(Cl)c1)CCN1CCCC1", "note": "[BD1008]", "values": [
      {"measurement": "Ki", "setting": "[4]", "value": 5.6, "unit": "nM"},
      {"measurement": "inhibition of specific binding of 4-[125I]PEMP", "setting": "[5]", "value": "high affinity, concentration-dependent inhibition of specific binding"}
    ]},
    {"compound": "O=C(NC1CCN(Cc2ccccc2)CC1)c1cccc(I)c1", "note": "[3-IBP, (N-Benzylpiperidin-4-yl)-3-iodobenzamide]", "values": [
      {"measurement": "Ki", "setting": "Sigma-2 [1]; [16]", "value": "84.6 ± 2.5", "unit": "nM"},
      {"measurement": "Ki", "setting": "DOPAMINE D-2", "value": "24.8 ± 0.02", "unit": "nM"},
      {"measurement": "Ki", "setting": "PCP", "value": "> 100000", "unit": "nM"},
      {"measurement": "Ki", "setting": "[2]", "value": "> 100000", "unit": "nM"},
      {"measurement": "Ki", "setting": "Sigma-1 [6]; [17]", "value": "3.02 ± 1.06", "unit": "nM"}
    ]},
    {"compound": "CC(C)=CCN1CCC2(C)c3cc(O)ccc3CC1C2C", "note": "(single isomer, unassigned; (+)) [(+)-Pentazocine]", "values": [
      {"measurement": "Ki", "setting": "[4]", "value": 35.9, "unit": "nM"},
      {"measurement": "specific binding to sigma-1 sites", "setting": "[7]", "value": "little or no specific binding"}
    ]},
    {"compound": "CN(CCc1ccc(I)cc1)CCN1CCCCC1", "note": "[4-IPEMP, N-[(4-I-iodophenyl)ethyl]-N-methyl-2-(1-piperidinyl)-ethylamine]", "values": [
      {"measurement": "Ki", "setting": "Sigma-2 [1]", "value": 52.6, "unit": "nM"},
      {"measurement": "Ki", "setting": "Sigma-1 [6]", "value": 7.02, "unit": "nM"}
    ]},
    {"compound": "O=C(CCCN1CCC2(CC1)C(=O)NCN2c1ccccc1)c1ccc(F)cc1", "note": "[Spiperone]", "values": [
      {"measurement": "Ki", "setting": "[3]", "value": "247 ± 37", "unit": "nM"}
    ]},
    {"compound": "O=C(NC1CCN(Cc2ccccc2)CC1)c1ccc(I)cc1", "note": "[4-[^125I]BP, ^125I-(N-Benzylpiperidin-4-yl)-4-iodobenzamide]", "values": [
      {"measurement": "Kd", "setting": "[8]", "value": 26, "unit": "nM"}
    ]},
    {"compound": "CC(C)=CCN1CC[C@]2(C)c3cc(O)ccc3C[C@H]1[C@H]2C", "note": "[[^3H] (+)-pentazocine]", "values": [
      {"measurement": "specific binding to sigma-1 sites", "setting": "[7]", "value": "No specific binding"},
      {"measurement": "Kd", "setting": "[9]; read-out: Kd1 Sigma-1", "value": 6.62, "unit": "nM"},
      {"measurement": "Kd", "setting": "[9]; read-out: Kd4 Sigma-1", "value": 261, "unit": "nM"}
    ]},
    {"compound": "CCCN1CCC[C@H](c2cccc(O)c2)C1", "note": "[(+)-PPP]", "values": [
      {"measurement": "Ki", "setting": "[3]", "value": "> 1000", "unit": "nM"}
    ]},
    {"compound": "O=C(NC1CCN(Cc2ccccc2)CC1)c1ccccc1I", "note": "[2-IBP, (N-Benzylpiperidin-4-yl)-2-iodobenzamide]", "values": [
      {"measurement": "Ki", "setting": "Sigma-2 [1]; [16]", "value": "29.6 ± 0.49", "unit": "nM"},
      {"measurement": "Ki", "setting": "DOPAMINE D-2", "value": "63.4 ± 10.8", "unit": "nM"},
      {"measurement": "Ki", "setting": "PCP", "value": "> 100000", "unit": "nM"},
      {"measurement": "Ki", "setting": "[2]", "value": "> 100000", "unit": "nM"},
      {"measurement": "Ki", "setting": "Sigma-1 [6]; [17]", "value": "1.64 ± 0.15", "unit": "nM"}
    ]},
    {"compound": "CN(CCc1ccc(Br)cc1)CCN1CCCCC1", "note": "[Br-PEMP, N-[2-(4-Bromophenyl)ethyl]-N-methyl-2-(1-piperidinyl)ethylamine]", "values": [
      {"measurement": "Ki", "setting": "Sigma-2 [1]", "value": 51.8, "unit": "nM"},
      {"measurement": "Ki", "setting": "Sigma-1 [6]", "value": 6.27, "unit": "nM"}
    ]},
    {"compound": "^131I(2-Piperidinylaminoethyl)4-iodobenzamide [[^131I]PAB]", "values": [
      {"measurement": "detection in the tumor, scintigraphic image", "setting": "[10]; 6 and 24 hrs. post injection", "value": "detected only within the tumor"},
      {"measurement": "uptake in the liver, scintigraphic image", "setting": "[10]; 6 and 24 hrs. post-administration", "value": "Little or no"},
      {"measurement": "visualization of implanted tumor, scintigraphic image", "setting": "[11]", "value": "easily visualized the implanted tumor"}
    ]},
    {"compound": "O=C(NCCN1CCCCC1)c1ccc(I)cc1", "note": "[IPAB, (2-Piperidinylaminoethyl)4-iodobenzamide]", "values": [
      {"measurement": "Ki", "setting": "[12]", "value": 6.8, "unit": "nM"},
      {"measurement": "Ki", "setting": "Sigma-2 [13]", "value": 24, "unit": "nM"},
      {"measurement": "Ki", "setting": "Sigma-1 [14]", "value": 0.89, "unit": "nM"},
      {"measurement": "Ki", "setting": "[15]", "value": 130, "unit": "nM"}
    ]}
  ]
}
